DBAASP
≈ marks a conversion by molar mass, not a printed value. Where “and” joins values, the source holds several entries; their conditions need not be identical. Identical values can stand only once. Values belong to the compound of their own block, whether it stands above or below them.

Assays:
Test in all cases: ≥ marks a high value that may be exact or a test limit, other limits are often not marked, values filed in µg/mL are converted to µM
[1] = tested on: Staphylococcus epidermidis KCTC 1917
[2] = tested on: Staphylococcus aureus CCARM 3001
[3] = tested on: Pseudomonas aeruginosa KCTC 1637
[4] = tested on: Pseudomonas aeruginosa CCARM 2095
[5] = tested on: Staphylococcus aureus KCTC 1621
[6] = tested on: Staphylococcus aureus CCARM 3543
[7] = tested on: Salmonella typhimurium KCTC 1926
[8] = tested on: Bacillus subtilis KCTC 3068
[9] = tested on: Pseudomonas aeruginosa CCARM 2109
[10] = tested on: Escherichia coli KCTC 1682
[11] = tested on: Escherichia coli K91BK
[12] = tested on: Bacillus subtilis var. niger ATCC 9372
[13] = tested on: Burkholderia thailandensis
[14] = tested on: Bacillus anthracis Sterne 34F2
[15] = tested on: Escherichia coli IFO 12734
[16] = tested on: Staphylococcus aureus IFO 12732
[17] = tested on: Pseudomonas aeruginosa IFO 12582
[18] = tested on: Bacillus subtilis IFO 3134
[19] = tested on: Escherichia coli ML-35
[20] = tested on: Bacillus megaterium
[21] = tested on: Salmonella enterica subsp. enterica serovar Typhimurium ATCC 14028
[22] = tested on: Staphylococcus aureus ATCC 25923
[23] = tested on: Escherichia coli ATCC 25922
[24] = tested on: Pseudomonas aeruginosa ATCC 27853
[25] = tested on: Mycobacterium tuberculosis
[26] = tested on: Mycobacterium tuberculosis H37Rv
[27] = tested on: Mycobacterium tuberculosis FYX
[28] = tested on: Mycobacterium tuberculosis WXY
[29] = tested on: Mycobacterium tuberculosis CAS3
[30] = tested on: Staphylococcus aureus CCARM 3090
[31] = tested on: Staphylococcus aureus CCARM 3095
[32] = tested on: Enterococcus faecium ATCC 51559
[33] = tested on: Enterococcus faecalis ATCC 29212
[34] = tested on: Listeria monocytogenes
[35] = tested on: Salmonella enterica subsp. enterica serovar Typhimurium ATCC 14028s
[36] = tested on: Staphylococcus epidermidis
[37] = tested on: Escherichia coli UB1005
[38] = tested on: Pseudomonas aeruginosa K799

MIC [1]: 8 µM (≈ 12.2 µg/mL) | MIC [2]: 4 µM (≈ 6.1 µg/mL) | MIC [3]: 8 µM (≈ 12.2 µg/mL) | MIC [4]: 8 µM (≈ 12.2 µg/mL) | MIC [5]: 4 µM (≈ 6.1 µg/mL) | MIC [6]: 4 µM (≈ 6.1 µg/mL) | MIC [7]: 4 µM (≈ 6.1 µg/mL) | MIC [8]: 8 µM (≈ 12.2 µg/mL) | MIC [9]: 16 µM (≈ 24.4 µg/mL) | MIC [10]: 8 µM (≈ 12.2 µg/mL)
SMILES: CC(C)C[C@H](NC(=O)[C@H](CC(C)C)NC(=O)[C@H](Cc1c[nH]c2ccccc12)NC(=O)[C@H](CCCCN)NC(=O)[C@H](CC(C)C)NC(=O)[C@H](Cc1c[nH]c2ccccc12)NC(=O)[C@H](CC(C)C)NC(=O)[C@H](CCCCN)NC(=O)[C@H](Cc1c[nH]c2ccccc12)NC(=O)[C@H](CC(C)C)NC(=O)[C@@H](N)CCCCN)C(N)=O [KLWKLWLKWLL]

MIC [15]: ≥ 64 µM | MIC [16]: ≥ 64 µM | MIC [17]: ≥ 64 µM | MIC [18]: ≥ 64 µM
SMILES: CC[C@H](C)[C@H](NC(=O)[C@H](C)NC(=O)[C@@H]1CCCN1C(=O)[C@@H](NC(=O)[C@@H](NC(=O)[C@H](Cc1cnc[nH]1)NC(=O)[C@H](C)NC(=O)[C@H](C)NC(=O)[C@@H](NC(=O)[C@H](CCCCN)NC(=O)[C@H](C)NC(=O)[C@H](CC(C)C)NC(=O)[C@@H](NC(=O)CNC(=O)[C@H](Cc1ccccc1)NC(=O)CN)C(C)C)C(C)C)C(C)C)C(C)C)C(=O)N[C@@H](C)C(=O)N[C@@H](CCC(=O)O)C(=O)N[C@@H](Cc1cnc[nH]1)C(=O)N[C@@H](Cc1ccccc1)C(N)=O [GFGVLAKVAAHVVPAIAEHF]

MIC [25]: 14.8 µM (≈ 28 µg/mL) | MIC [26]: 11.6 µM and 19.8 µM | MIC [27]: 19.8 µM (≈ 37.5 µg/mL) | MIC [28]: ≥ 39.7 µM | MIC [23]: > 25 µM | MIC [29]: ≥ 39.7 µM
SMILES: CC(C)C[C@H](NC(=O)[C@H](CCCCN)NC(=O)[C@H](CCCCN)NC(=O)[C@H](CO)NC(=O)[C@H](Cc1ccccc1)NC(=O)[C@H](CCCCN)NC(=O)CNC(=O)[C@@H]1CCCN1C(=O)CNC(=O)[C@H](CCCCN)NC(=O)[C@H](CC(C)C)NC(=O)CNC(=O)[C@H](CCCCN)NC(=O)[C@H](CC(C)C)NC(=O)CNC(=O)[C@H](Cc1c[nH]c2ccccc12)NC(=O)[C@@H](N)Cc1ccccc1)C(=O)O [FWGLKGLKGPGKFSKKL]

MIC [3]: 4 µM and 8 µM | MIC [4]: 4 µM (≈ 6.32 µg/mL) | MIC [8]: 8 µM and 4 µM | MIC [9]: ≥ 64 µM | MIC [30]: ≥ 64 µM | MIC [31]: ≥ 64 µM | MIC [32]: ≥ 64 µM
SMILES: CC[C@H](C)[C@H](NC(=O)[C@H](CC(C)C)NC(=O)[C@H](CCCCN)NC(=O)[C@@H](NC(=O)[C@@H](NC(=O)[C@H](CCCN=C(N)N)NC(=O)[C@@H](N)CCCCN)[C@@H](C)CC)C(C)C)C(=O)N[C@@H](CCCCN)C(=O)N[C@@H](CCCCN)C(=O)N[C@@H](Cc1c[nH]c2ccccc12)C(=O)N[C@@H](CC(C)C)C(=O)N[C@@H](CCCN=C(N)N)C(N)=O [KRIVKLIKKWLR]

More lines, now with the values behind:

SMILES: CC[C@H](C)[C@H](NC(=O)[C@H](CCCCN)NC(=O)[C@H](CCCN=C(N)N)NC(=O)CNC(=O)[C@H](CC(C)C)NC(=O)[C@H](CCCN=C(N)N)NC(=O)[C@H](CCCN=C(N)N)NC(=O)[C@H](CC(C)C)NC(=O)CNC(=O)[C@H](CCCN=C(N)N)NC(C)=O)C(=O)N[C@@H](C)C(=O)N[C@@H](Cc1cnc[nH]1)C(=O)NCC(=O)N[C@H](C(=O)N[C@@H](CCCCN)C(=O)N[C@@H](CCCCN)C(=O)N[C@@H](Cc1ccc(O)cc1)C(=O)NCC(=O)N1CCC[C@H]1C(=O)N[C@H](C(=O)N[C@H](C(=O)N[C@@H](CC(C)C)C(=O)N[C@@H](CCCN=C(N)N)C(=O)N[C@H](C(=O)N[C@H](C(=O)N[C@@H](CCCN=C(N)N)C(=O)N[C@H](C(=O)N[C@@H](C)C(=O)N[C@H](C(N)=O)[C@@H](C)O)[C@@H](C)O)[C@@H](C)CC)[C@@H](C)CC)C(C)C)[C@@H](C)O)C(C)C [RGLRRLGRKIAHGVKKYGPTVLRIIRTAT]
MIC [11]: ≥ 36.1 µM | MIC [12]: 3.13 µM (≈ 10.4 µg/mL) | MIC [13]: ≥ 100 µM | MIC [14]: 2.51 µM (≈ 8.36 µg/mL)

SMILES: CC[C@H](C)[C@H](NC(=O)[C@H](C)NC(=O)[C@@H]1CCCN1C(=O)[C@@H](NC(=O)[C@@H](NC(=O)[C@H](Cc1cnc[nH]1)NC(=O)[C@H](C)NC(=O)[C@H](C)NC(=O)[C@@H](NC(=O)[C@H](CCCCN)NC(=O)[C@H](C)NC(=O)[C@H](CC(C)C)NC(=O)[C@@H](NC(=O)CNC(=O)[C@H](Cc1ccccc1)NC(=O)[C@H](CC(C)C)NC(=O)CN)C(C)C)C(C)C)C(C)C)C(C)C)C(=O)N[C@@H](C)C(=O)N[C@@H](CCC(=O)O)C(=O)N[C@@H](Cc1cnc[nH]1)C(N)=O [GLFGVLAKVAAHVVPAIAEH]
MIC [15]: ≥ 64 µM | MIC [16]: ≥ 64 µM | MIC [17]: ≥ 64 µM | MIC [18]: ≥ 64 µM

SMILES: CC[C@H](C)[C@H](NC(=O)[C@H](CCCCN)NC(=O)[C@H](CCCCN)NC(=O)[C@H](CC(C)C)NC(=O)[C@H](C)NC(=O)[C@H](CCC(=O)O)NC(=O)[C@H](CCCCN)NC(=O)[C@@H](NC(=O)[C@H](CCCCN)NC(=O)[C@H](CC(N)=O)NC(=O)[C@H](CCCN=C(N)N)NC(=O)[C@H](Cc1ccccc1)NC(=O)[C@H](CCCCN)NC(=O)[C@H](CCCN=C(N)N)NC(=O)[C@H](CC(C)C)NC(=O)[C@H](C)NC(=O)[C@H](CCCCN)NC(=O)[C@H](CCCN=C(N)N)NC(=O)[C@H](CC(C)C)NC(=O)CN)[C@@H](C)CC)C(=O)O [GLRKALRKFRNKIKEALKKI]
MIC [19]: 0.5 µM (≈ 1.21 µg/mL) | MIC [20]: 2 µM (≈ 4.82 µg/mL) | MIC [21]: 0.5 µM (≈ 1.21 µg/mL) | MIC [22]: 2 µM (≈ 4.82 µg/mL) | MIC [23]: 2 µM (≈ 4.82 µg/mL) | MIC [24]: 2 µM (≈ 4.82 µg/mL)

SMILES: CC[C@H](C)[C@@H]1NC(=O)[C@H](C(C)C)NC(=O)[C@H](C(C)C)NC(=O)[C@H]([C@@H](C)CC)NC(=O)[C@@H]2CCCN2C(=O)[C@@H](NC(=O)[C@H](CCCN=C(N)N)NC(=O)[C@@H](N)CCCN=C(N)N)CSSC[C@@H](C(=O)N[C@@H](CCCN=C(N)N)C(=O)O)NC(=O)[C@H](C(C)C)NC(=O)[C@H](CCCN=C(N)N)NC1=O [RRCPIVVIRVCR]
MIC [33]: > 21.8 µM | MIC [34]: 10.9 µM (≈ 16 µg/mL) | MIC [35]: 10.9 µM (≈ 16 µg/mL) | MIC [36]: 21.8 µM (≈ 32 µg/mL) | MIC [22]: 21.8 µM (≈ 32 µg/mL) | MIC [37]: 2.72 µM (≈ 3.99 µg/mL) | MIC [38]: 21.8 µM (≈ 32 µg/mL)
